Publication PMC11214487, “YZL-51N functions as a selective inhibitor of SIRT7 by NAD^+ competition to impede DNA damage repair” (iScience, 2024)
pIC50, pKd: −log10 of the molar value.

Experiments:
HCT116 xenograft = HCT116 xenograft model; type: in vivo, BALB/c nude mice
Procedure: For the xenograft models, HCT116 cells (5 x 10^6 in 100 μL of PBS) were inoculated subcutaneously into the dorsal flank of the 4-week-old male BALB/c nude mice. The mice were randomly divided into control, drug treatment, IR treatment and combination treatment groups. Control group was injected with PBS. Drug treatment group was treated with 15 mg/kg YZL-51N every 3 d. In IR treatment group, the tumor site was irradiated with 3 Gy every 3 d. The combination group was treated with both 15 mg/kg YZL-51N and 3 Gy IR. The tumor size was estimated from the measurement of the longest diameter across the tumor and the corresponding perpendicular diameter. Tumor volumes were assessed on indicated days by a caliper and calculated using the formula: volume = (length x width[2])/2.

HCT116 = test: CCK-8 cell proliferation assay; type: cell-based; settings: Homo sapiens, HCT-116; HCT116, 48 h
Procedure: (§1) The plate was added with 10 μL CCK-8 solution to each well and incubated for 2 h at 37°C. The absorbance was measured at 450 nm using a microtiter plate reader (BioTek).

HT29 = test: CCK-8 cell proliferation assay; type: cell-based; settings: Homo sapiens, HT-29; HT29, 48 h
Procedure: as §1

SW620 = test: CCK-8 cell proliferation assay; type: cell-based; settings: Homo sapiens, SW-620; SW620, 48 h
Procedure: as §1

HCT116 cells = test: Western blot of histone acetylation in treated cells; type: cell-based, human; settings: HCT116, 0-40 μM, 8 h
Procedure: After drug treatment, the cells were lysed in RIPA lysis buffer. […] The membranes were then blocked with 5% skimmed milk in TBST and incubated overnight at 4°C with the primary antibodies followed by incubation with HRP-conjugated secondary antibodies. The protein bands were then detected using the ECL substrates and visualized with Tanon 5200SF Imaging System.

SIRT7 [1] = target: T1, SIRT7 (Homo sapiens, UniProt Q9NRC8); test: Bio-layer interferometry (BLI) binding assay; settings: 0-40 μM, PBST pH 7.4
T1 construct: His-tagged full length SIRT7 protein expression from BL21 bacterial cells; His; made in house; host or cells: E. coli BL21
T1 sequence (Q9NRC8 1-400): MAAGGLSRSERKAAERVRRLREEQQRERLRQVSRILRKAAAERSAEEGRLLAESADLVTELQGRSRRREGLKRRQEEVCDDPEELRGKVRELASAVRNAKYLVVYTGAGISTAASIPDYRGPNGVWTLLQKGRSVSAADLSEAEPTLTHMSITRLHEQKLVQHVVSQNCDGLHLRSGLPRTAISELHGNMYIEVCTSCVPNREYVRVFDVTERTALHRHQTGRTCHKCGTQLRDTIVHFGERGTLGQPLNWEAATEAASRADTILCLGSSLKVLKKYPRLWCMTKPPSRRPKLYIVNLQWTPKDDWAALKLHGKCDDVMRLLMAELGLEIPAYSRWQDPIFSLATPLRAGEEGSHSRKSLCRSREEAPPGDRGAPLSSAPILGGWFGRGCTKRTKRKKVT
Procedure: The binding affinity of SIRT1/2/6/7 with YZL-51N was determined using Super Streptavidin (SSA) biosensors in an Octet Red 96 instrument (ForteBio Inc., Menlo Park, CA, United States). Briefly, the biotinylated SIRT1/2/6/7 proteins were immobilized onto the surface of SSA biosensors. Increasing concentrations of YZL-51N were allowed to flow through the chips at room temperature in PBST buffer (pH 7.4). Assays were performed in black 96-well flat bottom plates on a shaker at 1000 r/min. The association and dissociation of YZL-51N with SIRT1/2/6/7 were measured for 300 s. Kinetic parameters and affinities were calculated from a non-linear global fit of the data between YZL-51N and SIRT1/2/6/7 using Octet Data Analysis software version 7.0 (Fortebio).

SIRT7 [2] = target: T1, SIRT7; test: Cellular thermal shift assay in HCT116 cell lysates; type: binding; settings: 20 μM
Procedure: (§2) Cellular thermal shift assays were performed according to previously reported methods with some modifications.[66] Briefly, HCT116 cells were lysed with RIPA buffer and incubated with 20 μM YZL-51N or DMSO for 1 h on ice. Subsequently, cell lysates were divided into 70 μL aliquots and heated individually at different temperatures for 4 min following by cooling on ice. The heated lysates were centrifuged, and 50 μL supernatants were taken for SDS-PAGE and immunoblotting analysis with the indicated antibodies.

SIRT1 = target: T2, SIRT1 (Homo sapiens, UniProt Q96EB6); test: as above; type: binding; settings: 20 μM
T2 construct: endogenous in cells; host or cells: HCT116
T2 sequence (Q96EB6 1-747): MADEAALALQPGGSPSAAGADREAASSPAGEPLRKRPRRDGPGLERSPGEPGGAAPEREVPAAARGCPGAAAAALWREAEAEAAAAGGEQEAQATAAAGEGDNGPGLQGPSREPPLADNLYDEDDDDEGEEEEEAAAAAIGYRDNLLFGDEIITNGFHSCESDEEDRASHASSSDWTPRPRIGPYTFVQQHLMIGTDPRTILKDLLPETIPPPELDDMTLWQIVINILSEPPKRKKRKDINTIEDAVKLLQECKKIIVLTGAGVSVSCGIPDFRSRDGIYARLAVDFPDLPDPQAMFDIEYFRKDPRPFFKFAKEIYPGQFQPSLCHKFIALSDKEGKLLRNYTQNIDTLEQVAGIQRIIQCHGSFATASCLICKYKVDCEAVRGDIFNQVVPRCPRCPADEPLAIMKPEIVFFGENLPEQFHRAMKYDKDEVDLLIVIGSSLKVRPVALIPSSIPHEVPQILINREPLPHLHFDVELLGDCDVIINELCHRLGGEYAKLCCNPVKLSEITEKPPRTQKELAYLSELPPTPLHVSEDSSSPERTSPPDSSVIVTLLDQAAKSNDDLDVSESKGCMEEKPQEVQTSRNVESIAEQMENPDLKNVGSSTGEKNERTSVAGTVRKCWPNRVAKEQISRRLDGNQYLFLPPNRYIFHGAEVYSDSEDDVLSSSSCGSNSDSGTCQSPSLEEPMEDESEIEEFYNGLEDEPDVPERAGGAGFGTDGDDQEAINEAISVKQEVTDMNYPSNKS
Procedure: as §2

With `COC(=O)/C(=C\C(=O)c1ccc(O)c(O)c1)c1ccc(O)c(O)c1` [YZL-51N] the “Tumor therapy, co-treatment with IR” value (HCT116 xenograft; 15 mg/kg YZL-51N and 3 Gy IR every 3 days) was “more effective”, the Tumor volume (HCT116 xenograft; 15 mg/kg every 3 days, alone) was “reduction on the tumor volume” and the pIC50 (HCT116) was 4.43. For the same compound, the pIC50 (HT29) was 4.32, the pIC50 (SW620) was 4.54 and the “Level of H3K18ac” value (HCT116 cells) was “increased”. For the same compound, the pKd (SIRT7 [1]) was 5.48, the “Shift in the melting curve” value (SIRT7 [2]) was 5.2 °C and the “Effect on the melting curve” value (SIRT1) was “no obvious effect”.
